Like-named read-outs stand apart in the source and are kept apart here.
Columns and labels:
[1] = molecular target: T1, cellular kinases of SH-SY5Y cells (Homo sapiens, UniProt O14920); assay: biochemical; assay type: binding; conditions: 2µM; SH-SY5Y cells; Labeling Site Lys2; DLKPENIVLQQGEQR; read-out: KiNativ in-cell binding, % Inhibition, IKBKB/IKKb
T1 construct: endogenous in cells; host or cells: SH-SY5Y
Text: (§1) As KINOMEscan is an in vitro assay, and as different cell types have variable kinase expression profiles we sought to determine the kinase binding profile in our SH-SY5Y TFEB-relocalization cell model. […] Bound kinases were pulled down and analyzed by mass spectrometry to determine the in situ kinase binding profile for each compound.

[2] = molecular target: cellular kinases of SH-SY5Y cells (Homo sapiens, UniProt P42338); assay: biochemical; assay type: binding; conditions: 2µM; SH-SY5Y cells; Labeling Site ATP; VFGEDSVGVIFKNGDDLRQDMLTLQMLR; read-out: KiNativ in-cell binding, % Inhibition, PIK3CB
cellular kinases of SH-SY5Y cells (Homo sapiens, UniProt P42338), sequence (P42338 whole entry): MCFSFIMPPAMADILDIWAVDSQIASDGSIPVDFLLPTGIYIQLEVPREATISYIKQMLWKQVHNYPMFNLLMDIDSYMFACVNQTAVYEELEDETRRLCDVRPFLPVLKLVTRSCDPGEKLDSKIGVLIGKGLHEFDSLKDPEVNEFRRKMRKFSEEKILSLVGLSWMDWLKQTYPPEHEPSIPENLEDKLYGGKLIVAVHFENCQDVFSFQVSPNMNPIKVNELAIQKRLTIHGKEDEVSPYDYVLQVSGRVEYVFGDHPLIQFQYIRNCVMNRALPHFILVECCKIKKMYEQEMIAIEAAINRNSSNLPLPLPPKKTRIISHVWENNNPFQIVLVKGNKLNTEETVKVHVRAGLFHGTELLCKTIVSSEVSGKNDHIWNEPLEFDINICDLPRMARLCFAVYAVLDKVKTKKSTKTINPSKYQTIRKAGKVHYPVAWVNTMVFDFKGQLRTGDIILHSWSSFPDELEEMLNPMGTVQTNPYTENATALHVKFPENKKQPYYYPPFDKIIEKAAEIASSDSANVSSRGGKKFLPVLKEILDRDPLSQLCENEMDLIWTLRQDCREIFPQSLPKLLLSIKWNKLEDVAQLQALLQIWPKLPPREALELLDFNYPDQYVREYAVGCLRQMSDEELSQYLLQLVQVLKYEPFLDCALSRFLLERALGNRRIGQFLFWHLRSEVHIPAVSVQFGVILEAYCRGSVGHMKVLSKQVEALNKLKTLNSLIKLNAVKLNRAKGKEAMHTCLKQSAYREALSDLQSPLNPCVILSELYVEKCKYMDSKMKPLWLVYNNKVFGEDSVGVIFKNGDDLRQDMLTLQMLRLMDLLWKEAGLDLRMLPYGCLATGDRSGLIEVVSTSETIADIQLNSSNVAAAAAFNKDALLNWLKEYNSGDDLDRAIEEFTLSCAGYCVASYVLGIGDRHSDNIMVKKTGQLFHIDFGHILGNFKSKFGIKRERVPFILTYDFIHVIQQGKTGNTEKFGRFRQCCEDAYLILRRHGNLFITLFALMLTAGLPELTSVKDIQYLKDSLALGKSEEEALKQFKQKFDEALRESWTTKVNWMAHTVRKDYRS
Text: as §1

[3] = molecular target: T2, cellular kinases of SH-SY5Y cells (Homo sapiens, UniProt Q9UBF8); assay: biochemical; assay type: binding; conditions: 2µM, SH-SY5Y cells, Labeling Site ATP, read-out: KiNativ in-cell binding, % Inhibition, PI4KB
T2 construct: endogenous in cells; host or cells: SH-SY5Y
T2 sequence (Q9UBF8 whole entry): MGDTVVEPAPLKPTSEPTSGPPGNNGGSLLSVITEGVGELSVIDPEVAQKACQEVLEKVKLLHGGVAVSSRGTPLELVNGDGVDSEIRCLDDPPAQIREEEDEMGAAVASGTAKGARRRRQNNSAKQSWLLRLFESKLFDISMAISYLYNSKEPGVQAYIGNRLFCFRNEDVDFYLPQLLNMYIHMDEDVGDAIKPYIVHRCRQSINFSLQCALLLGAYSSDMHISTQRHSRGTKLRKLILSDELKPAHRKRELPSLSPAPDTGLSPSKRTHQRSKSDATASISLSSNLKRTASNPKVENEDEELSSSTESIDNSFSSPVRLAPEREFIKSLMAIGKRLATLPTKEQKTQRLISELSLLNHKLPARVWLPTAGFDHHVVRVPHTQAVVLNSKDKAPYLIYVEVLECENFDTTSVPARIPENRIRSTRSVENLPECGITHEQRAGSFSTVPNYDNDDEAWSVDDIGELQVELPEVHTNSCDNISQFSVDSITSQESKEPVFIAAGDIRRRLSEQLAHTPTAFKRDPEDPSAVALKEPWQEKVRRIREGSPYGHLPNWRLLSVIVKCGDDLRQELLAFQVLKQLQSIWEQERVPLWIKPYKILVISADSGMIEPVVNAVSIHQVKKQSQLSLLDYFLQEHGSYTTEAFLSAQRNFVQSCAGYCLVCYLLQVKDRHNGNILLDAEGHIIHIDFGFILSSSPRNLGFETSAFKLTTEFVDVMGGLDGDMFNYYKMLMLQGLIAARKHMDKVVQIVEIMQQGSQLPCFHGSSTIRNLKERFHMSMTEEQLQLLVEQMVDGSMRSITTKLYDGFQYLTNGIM
Text: as §1

[4] = molecular target: T3, cellular kinases of SH-SY5Y cells (Homo sapiens, UniProt Q13177); assay: biochemical; assay type: binding; conditions: 2µM; SH-SY5Y cells; Labeling Site Other; KNPQAVLDVLKFYDSNTVK; read-out: KiNativ in-cell binding, % Inhibition, PAK2
T3 construct: endogenous in cells; host or cells: SH-SY5Y
T3 sequence (Q13177 whole entry): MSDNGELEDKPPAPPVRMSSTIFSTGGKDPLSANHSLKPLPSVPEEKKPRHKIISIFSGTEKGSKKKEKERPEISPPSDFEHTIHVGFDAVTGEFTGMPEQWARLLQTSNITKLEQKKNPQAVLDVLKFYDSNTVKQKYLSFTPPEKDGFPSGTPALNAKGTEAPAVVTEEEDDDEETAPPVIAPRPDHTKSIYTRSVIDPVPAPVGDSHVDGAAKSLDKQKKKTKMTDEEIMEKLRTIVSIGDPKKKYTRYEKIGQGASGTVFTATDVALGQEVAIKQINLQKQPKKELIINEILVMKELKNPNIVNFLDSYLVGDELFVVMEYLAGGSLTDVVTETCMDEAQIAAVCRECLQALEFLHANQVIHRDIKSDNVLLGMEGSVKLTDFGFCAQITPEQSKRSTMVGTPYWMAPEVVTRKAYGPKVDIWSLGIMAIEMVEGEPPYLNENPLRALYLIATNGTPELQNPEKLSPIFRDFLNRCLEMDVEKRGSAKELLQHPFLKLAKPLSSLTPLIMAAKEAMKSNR
Text: as §1

[5] = molecular target: cellular kinases of SH-SY5Y cells (Homo sapiens, UniProt P50750); assay: biochemical; assay type: binding; conditions: 2µM, SH-SY5Y cells, read-out: KiNativ in-cell binding, % Inhibition, CDK9
cellular kinases of SH-SY5Y cells (Homo sapiens, UniProt P50750), sequence (P50750 whole entry): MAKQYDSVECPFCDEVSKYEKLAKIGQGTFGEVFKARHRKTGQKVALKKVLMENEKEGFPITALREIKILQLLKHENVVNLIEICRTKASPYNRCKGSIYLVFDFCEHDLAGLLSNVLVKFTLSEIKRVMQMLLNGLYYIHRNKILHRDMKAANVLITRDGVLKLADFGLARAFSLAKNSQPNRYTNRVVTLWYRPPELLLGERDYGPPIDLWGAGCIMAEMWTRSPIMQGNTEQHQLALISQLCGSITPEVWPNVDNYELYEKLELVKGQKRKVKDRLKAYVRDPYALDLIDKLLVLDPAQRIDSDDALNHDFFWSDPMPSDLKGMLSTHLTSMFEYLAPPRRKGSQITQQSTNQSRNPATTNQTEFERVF
Text: as §1

[6] = molecular target: T4, cellular kinases of SH-SY5Y cells (Homo sapiens, UniProt Q9NYL2); assay: biochemical; assay type: binding; conditions: 2µM; SH-SY5Y cells; Labeling Site Lys1; WISQDKEVAVKK; read-out: KiNativ in-cell binding, % Inhibition, MAP3K20/ZAK
T4 construct: endogenous in cells; host or cells: SH-SY5Y
Text: as §1

[7] = molecular target: T5, cellular kinases of SH-SY5Y cells (Homo sapiens, UniProt Q9UL54); assay: biochemical; assay type: binding; conditions: 2µM; SH-SY5Y cells; Labeling Site Lys2; DVKAGNILLSEPGLVK; read-out: KiNativ in-cell binding, % Inhibition, TAOK2/TAO2
T5 construct: endogenous in cells; host or cells: SH-SY5Y
Text: as §1

[8] = molecular target: cellular kinases of SH-SY5Y cells (Homo sapiens, UniProt Q13043); assay: biochemical; assay type: binding; conditions: 2µM; SH-SY5Y cells; Labeling Site Lys1; ETGQIVAIKQVPVESDLQEIIK; read-out: KiNativ in-cell binding, % Inhibition, STK4/MST1
Text: as §1

[9] = molecular target: cellular kinases of SH-SY5Y cells (Homo sapiens, UniProt Q8IU85); assay: biochemical; assay type: binding; conditions: 2µM, SH-SY5Y cells
cellular kinases of SH-SY5Y cells (Homo sapiens, UniProt Q8IU85), sequence (Q8IU85 whole entry): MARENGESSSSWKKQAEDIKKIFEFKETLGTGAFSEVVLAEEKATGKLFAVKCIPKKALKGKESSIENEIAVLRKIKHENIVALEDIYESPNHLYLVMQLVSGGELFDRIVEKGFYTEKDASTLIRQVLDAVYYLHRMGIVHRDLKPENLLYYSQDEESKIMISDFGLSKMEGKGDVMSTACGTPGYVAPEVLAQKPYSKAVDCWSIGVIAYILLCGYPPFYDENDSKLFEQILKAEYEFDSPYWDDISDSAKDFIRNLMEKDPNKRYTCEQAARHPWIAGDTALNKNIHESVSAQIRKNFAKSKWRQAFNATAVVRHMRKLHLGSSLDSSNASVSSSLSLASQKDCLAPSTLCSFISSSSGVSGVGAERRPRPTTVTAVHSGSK
Text: as §1

[10] = molecular target: cellular kinases of SH-SY5Y cells (Homo sapiens, UniProt Q16584); assay: biochemical; assay type: binding; conditions: 2µM; SH-SY5Y cells; labeling site Lys2; peptide DLKSNNILLLQPIESDDMEHK
Text: as §1

[11] = molecular target: T6, cellular kinases of SH-SY5Y cells (Homo sapiens, UniProt P23458); assay: biochemical; assay type: binding; conditions: 2µM, SH-SY5Y cells
T6 construct: endogenous in cells; host or cells: SH-SY5Y
T6 sequence (P23458 whole entry): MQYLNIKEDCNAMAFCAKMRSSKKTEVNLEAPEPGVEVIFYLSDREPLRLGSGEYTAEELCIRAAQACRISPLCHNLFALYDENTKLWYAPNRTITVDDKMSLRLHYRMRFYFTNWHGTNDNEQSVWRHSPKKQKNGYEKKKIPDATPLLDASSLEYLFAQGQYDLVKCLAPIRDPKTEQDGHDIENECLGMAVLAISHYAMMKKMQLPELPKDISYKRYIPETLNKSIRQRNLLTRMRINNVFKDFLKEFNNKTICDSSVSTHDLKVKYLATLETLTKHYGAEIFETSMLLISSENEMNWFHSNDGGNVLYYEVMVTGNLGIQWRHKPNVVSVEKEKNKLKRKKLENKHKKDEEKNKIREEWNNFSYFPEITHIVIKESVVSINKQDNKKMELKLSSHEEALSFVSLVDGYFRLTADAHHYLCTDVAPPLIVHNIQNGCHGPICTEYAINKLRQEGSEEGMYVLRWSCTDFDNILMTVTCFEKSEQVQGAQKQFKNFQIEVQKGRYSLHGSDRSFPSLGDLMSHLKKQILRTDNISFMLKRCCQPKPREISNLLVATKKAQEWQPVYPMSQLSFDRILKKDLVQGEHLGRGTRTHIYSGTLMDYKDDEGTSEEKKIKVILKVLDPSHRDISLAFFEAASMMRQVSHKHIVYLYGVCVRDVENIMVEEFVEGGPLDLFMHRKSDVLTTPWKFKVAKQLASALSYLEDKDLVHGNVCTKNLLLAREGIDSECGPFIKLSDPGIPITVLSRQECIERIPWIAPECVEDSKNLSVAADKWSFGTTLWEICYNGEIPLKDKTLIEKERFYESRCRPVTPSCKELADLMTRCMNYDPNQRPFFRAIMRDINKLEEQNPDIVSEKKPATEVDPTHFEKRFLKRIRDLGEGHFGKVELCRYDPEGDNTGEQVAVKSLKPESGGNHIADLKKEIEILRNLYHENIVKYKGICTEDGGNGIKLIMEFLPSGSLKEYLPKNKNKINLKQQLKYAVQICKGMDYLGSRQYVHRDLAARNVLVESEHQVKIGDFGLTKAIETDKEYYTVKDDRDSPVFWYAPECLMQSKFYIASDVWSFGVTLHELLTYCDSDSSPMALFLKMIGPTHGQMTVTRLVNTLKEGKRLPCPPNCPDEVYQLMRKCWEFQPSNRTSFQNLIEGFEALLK
Text: as §1

[12] = molecular target: cellular kinases of SH-SY5Y cells (Homo sapiens, UniProt P51617); assay: biochemical; assay type: binding; conditions: 2µM; SH-SY5Y cells; labeling site Lys2; peptide AIQFLHQDSPSLIHGDIKSSNVLLDER
Text: as §1

[13] = molecular target: cellular kinases of SH-SY5Y cells (Homo sapiens, UniProt P50613); assay: biochemical; assay type: binding; conditions: 2µM; SH-SY5Y cells; Labeling Site Lys2; DLKPNNLLLDENGVLK; read-out: KiNativ in-cell binding, % Inhibition, CDK7
cellular kinases of SH-SY5Y cells (Homo sapiens, UniProt P50613), sequence (P50613 whole entry): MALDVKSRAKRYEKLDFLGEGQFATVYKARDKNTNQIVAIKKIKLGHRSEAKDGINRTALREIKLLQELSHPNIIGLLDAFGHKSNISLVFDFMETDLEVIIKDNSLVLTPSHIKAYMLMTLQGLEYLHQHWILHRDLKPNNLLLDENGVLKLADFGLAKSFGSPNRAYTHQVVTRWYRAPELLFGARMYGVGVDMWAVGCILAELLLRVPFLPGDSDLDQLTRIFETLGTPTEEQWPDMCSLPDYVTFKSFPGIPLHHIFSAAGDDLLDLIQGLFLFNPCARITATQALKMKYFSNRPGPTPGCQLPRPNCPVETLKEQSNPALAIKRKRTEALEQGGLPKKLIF
Text: as §1

PRKD1 = molecular target: T7, PRKD1 (Homo sapiens, UniProt Q15139); assay: PRKD1 binding KD (Table S3); conditions: relation sign
T7 sequence (Q15139 1-912): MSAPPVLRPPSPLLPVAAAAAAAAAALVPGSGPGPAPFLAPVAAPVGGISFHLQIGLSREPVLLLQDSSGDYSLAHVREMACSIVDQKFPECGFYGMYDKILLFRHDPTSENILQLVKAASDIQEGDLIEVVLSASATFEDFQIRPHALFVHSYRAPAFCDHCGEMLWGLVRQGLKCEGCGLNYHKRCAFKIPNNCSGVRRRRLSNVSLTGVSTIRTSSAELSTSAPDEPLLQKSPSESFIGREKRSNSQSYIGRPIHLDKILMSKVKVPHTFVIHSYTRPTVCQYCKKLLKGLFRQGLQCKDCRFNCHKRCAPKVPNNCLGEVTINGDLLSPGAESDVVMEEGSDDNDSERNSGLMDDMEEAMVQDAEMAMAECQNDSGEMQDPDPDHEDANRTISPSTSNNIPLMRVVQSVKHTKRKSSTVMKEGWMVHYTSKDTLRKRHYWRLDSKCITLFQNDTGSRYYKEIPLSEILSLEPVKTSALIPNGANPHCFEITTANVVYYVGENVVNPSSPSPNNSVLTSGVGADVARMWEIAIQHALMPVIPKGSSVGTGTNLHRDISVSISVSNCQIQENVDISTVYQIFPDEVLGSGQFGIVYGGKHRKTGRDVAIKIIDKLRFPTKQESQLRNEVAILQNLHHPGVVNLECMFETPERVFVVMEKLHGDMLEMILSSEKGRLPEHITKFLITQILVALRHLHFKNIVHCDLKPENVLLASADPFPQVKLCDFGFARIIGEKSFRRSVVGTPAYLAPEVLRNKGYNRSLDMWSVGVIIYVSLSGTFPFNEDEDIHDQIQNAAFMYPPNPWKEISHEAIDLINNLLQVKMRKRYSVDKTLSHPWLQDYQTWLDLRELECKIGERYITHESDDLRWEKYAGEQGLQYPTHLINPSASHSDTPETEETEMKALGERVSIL
Text: Supplement KAUP_A_2095834_SM5251.zip/Supplementary Tables R7.xlsx, sheet "Table S3 - Analogues"

## Cc1cccc(-c2nc(Nc3ccc4ncsc4c3)c3ccccc3n2)n1 [NK140]
[1]
  inhibition at 2 µM: -43%
[2]
  inhibition at 2 µM: -11.4%
[3]; LLSVIVKCGDDLRQELLAFQVLK
  inhibition at 2 µM: 29.7%
[3]; VPHTQAVVLNSKDK
  inhibition at 2 µM: 32.3%
[4]
  inhibition at 2 µM: 42.4%
[5]; Labeling Site ATP Loop, IGQGTFGEVFKAR
  inhibition at 2 µM: 2.1%
[5]; Labeling Site Lys2, DMKAANVLITR
  inhibition at 2 µM: -6%
[6]
  inhibition at 2 µM: -2%
[7]
  inhibition at 2 µM: 23.9%
[8]
  inhibition at 2 µM: 39%
[9]; Labeling Site Lys1, LFAVKCIPK, read-out: KiNativ in-cell binding, % Inhibition, CaMK1d
  inhibition at 2 µM: -23%
[9]; labeling site Lys2, peptide DLKPENLLYYSQDEESK
  KiNativ in-cell binding, CaMK1d: -24.1
[10]
  KiNativ in-cell binding, MAP3K11: -55.2
[11]; Labeling Site Lys1, YDPEGDNTGEQVAVKSLKPESGGNHIADLKK, read-out: KiNativ in-cell binding, % Inhibition, JAK1 domain2
  inhibition at 2 µM: 2.4%
[11]; labeling site Activation Loop, peptide IGDFGLTKAIETDKEYYTVK
  KiNativ in-cell binding, JAK1 domain2: -56.1
[12]
  KiNativ in-cell binding, IRAK1: -26.5
[13]
  inhibition at 2 µM: 56.5%

## Cc1cccc(-c2nc(Nc3ccncc3)c3ccccc3n2)n1 [NK215]
PRKD1
  Kd: 13 nM
